Laboratory results from patent US4755508A, “Benzodiazepine analogs and use as antogonists of gastrin and cholecystokinin” (Merck & Co., Inc., priority 1987, dated 1988).
Entries after “also recorded” stand apart in the source; their conditions may differ. Like-named read-outs stand apart in the source and are kept apart here. Where a SMILES comes first, the peptide text is derived from it. [ ]: non-standard residue; d: D form. The star is where a group is joined. sY = N[C@@H](Cc1ccc(OS(=O)(=O)O)cc1)C(=O)O; Cbz = O=C(OCc1ccccc1)*; Boc = CC(C)(C)OC(=O)*

Legend:
[1] = system: CCK receptor; conditions: structure-function studies; cited from earlier work
[2] = biological target: T1, CCK receptor (guinea pig cerebral cortex) (Cavia porcellus, UniProt H0VZC5); assay: 125I-CCK receptor binding (brain); conditions: 125I-CCK-33, guinea pig cerebral cortex, 25° C., 2 hours
T1 construct: Cerebral cortex was dissected and used as a receptor source; from tissue; host or cells: cerebral cortex of male Hartley guinea pigs (membranes)
Procedure: CCK-33 was radiolabeled and the binding was performed according to the description for the pancreas method with modifications according to Saito et al., J. Neurochem. 37, 483-490, 1981.
Male Hartley guinea pigs (300-500 g) were sacrificed by decapitation and the brains were removed and placed in ice-cold 50 mM, Tris HCl plus 7.58 g/l Trizma-7.4 (pH 7.4 at 25° C.). Cerebral cortex was dissected and used as a receptor source. Each gram of fresh guinea pig brain tissue was homogenized in 10 ml of Tris Trizma buffer with a Brinkman polytron PT-10. The homogenates were centrifuged at 42,000 g for 15 min. […] All assays were run in duplicate or triplicate. The reaction mixtures were incubated at 25° C. for 2 hours and centrifuged in a Beckman Microfuge (4 minutes) immediately after adding 1 ml of ice-cold incubation buffer. The supernatant was aspirated and discarded, pellets were counted with a Beckman gamma 5000.

[3] = biological target: T2, CCK receptor (rat pancreas membranes) (Rattus norvegicus, UniProt P30551); assay: 125I-CCK receptor binding (pancreas); conditions: for effect on the 125I-CCK receptor binding assay: added as protease inhibitor
T2 construct: The whole pancreas was dissected free of fat tissue and was homogenized; from tissue; host or cells: pancreas of male Sprague-Dawley rats (membranes)
T2 sequence (P30551 1-444): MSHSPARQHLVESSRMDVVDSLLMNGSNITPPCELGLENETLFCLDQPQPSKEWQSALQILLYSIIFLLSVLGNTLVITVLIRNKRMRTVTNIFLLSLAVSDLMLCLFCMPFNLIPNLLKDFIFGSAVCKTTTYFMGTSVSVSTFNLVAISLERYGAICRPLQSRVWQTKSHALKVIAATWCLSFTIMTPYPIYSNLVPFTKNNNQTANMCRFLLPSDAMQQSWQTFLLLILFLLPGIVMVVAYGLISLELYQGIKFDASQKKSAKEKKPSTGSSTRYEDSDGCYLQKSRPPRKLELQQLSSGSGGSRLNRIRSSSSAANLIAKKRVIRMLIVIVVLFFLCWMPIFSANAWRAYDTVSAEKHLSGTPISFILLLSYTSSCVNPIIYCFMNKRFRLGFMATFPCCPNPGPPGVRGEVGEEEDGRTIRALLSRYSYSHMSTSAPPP
Procedure: CCK-33 was radiolabeled with ^125 I-Bolton Hunter reagent (2000 Ci/mmole) as described by Sankara et al. (J. Biol. Chem. 254: 9349-9351, 1979). Receptor binding was performed according to Innis and Snyder (Proc. Natl. Acad. Sci. 77: 6917-6921, 1980) with the minor modification of adding the additional protease inhibitors, phenylmethane sulfonyl fluoride and o-phenanthroline. The latter two compounds have no effect on the ^125 I-CCK receptor binding assay.
Male Sprague-Dawley rats (200-350 g) were sacrificed by decapitation. The whole pancreas was dissected free of fat tissue and was homogenized in 20 volumes of ice-cold 50 mM, Tris HCl (pH 7.7 at 25° C.) with a Brinkmann Polytron PT 10. The homogenates were centrifuged at 48,000 g for 10 min. Pellets were resuspended in Tris Buffer, centrifuged as above and resuspended in 200 volumes of binding assay buffer (50 mM Tris HCl, pH 7.7 at 25° C., 5 mM dithiothrietol, 0.1 mM bacitracin, 1.2 mM phenylmethane sulfonyl fluoride and 0.5 mM o-phenanthroline). […] All assays were run in duplicate or triplicate. The reaction mixtures were incubated at 37° C. for 30 minutes and centrifuged in a Beckman Microfuge (4 minutes) immediately after adding 1 ml of ice-cold incubation buffer. The supernatant was aspirated and discarded, pellets were counted with a Beckman gamma 5000. For Scatchard analysis (Ann. N.Y. Acad. Sci. 51: 660, 1949), ^125 I-CCK-33 was progressively diluted with increasing concentrations of CCK-33

[4] = biological target: T3, gastrin receptor (Cavia porcellus, UniProt H0VZC5); assay: Gastrin receptor binding in guinea pig gastric glands; conditions: guinea pig gastric mucosal glands
T3 construct: Gastric mucosa from guinea pigs (300-500 g body weight, male Hartley) were washed thoroughly and minced; from tissue; host or cells: gastric mucosal glands of male Hartley guinea pigs
Procedure: Gastrin antagonist activity of compounds of Formula I is determined using the following assay: […]
GASTRIN RECEPTOR BINDING IN GUINEA PIG GASTRIC GLANDS
Guinea pig gastric mucosal glands were prepared by the procedure of Berglingh and Obrink Acta Physiol. Scand. 96: 150 (1976) with a slight modification according to Praissman et al. C. J. Receptor Res. 3: (1983). Gastric mucosa from guinea pigs (300-500 g body weight, male Hartley) were washed thoroughly and minced with fine scissors in standard buffer consisting of the following: 130 mM NaCl, 12 mM NaHCO3, 3 mM NaH2 PO4, 3 mM Na2 HPO4, 3 mM K2 HPO4, 2 mM MgSO4, 1 mM CaCl2, 5 mM glucose and 4 mM L-glutamine, 25 mM HEPES at pH 7.4. The minced tissues were washed and then incubated in a 37° C. shaker bath for 40 minutes with the buffer containing 0.1% collagenase and 0.1% BSA and bubbled with 95% O2 and 5% CO2. The tissues were passed twice through a 5 ml glass syringe to liberate the gastric glands, and then filtered through 200 mesh nylon. The filtered glands were centrifuged at 270 g for 5 minutes and washed twice by resuspension and centrifugation.

[5] = system: gastrin; conditions: in vitro; cited from earlier work
[6] = 125I-CCK-33, rat pancreas, 37° C., 30 minutes, read-out: IC50 (uM) 125I-CCK Pancreas

T3 sequence (H0VZC5 entry or part of it): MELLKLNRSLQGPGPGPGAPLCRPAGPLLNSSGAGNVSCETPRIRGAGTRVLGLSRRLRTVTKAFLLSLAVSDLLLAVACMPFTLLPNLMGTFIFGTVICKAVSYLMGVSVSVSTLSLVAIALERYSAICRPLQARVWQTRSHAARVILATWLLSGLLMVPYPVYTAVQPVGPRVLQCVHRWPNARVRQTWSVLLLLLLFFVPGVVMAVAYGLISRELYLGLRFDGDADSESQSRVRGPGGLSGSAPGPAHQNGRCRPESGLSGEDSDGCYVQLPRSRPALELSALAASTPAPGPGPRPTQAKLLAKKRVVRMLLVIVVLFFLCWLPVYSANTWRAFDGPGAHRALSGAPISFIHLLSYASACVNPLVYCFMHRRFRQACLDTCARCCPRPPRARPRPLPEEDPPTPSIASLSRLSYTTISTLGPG
T1 sequence (H0VZC5 entry or part of it): as above

Row | SMILES | IC50 [2] | IC50 [3, 6] | also measured
1 | CSCC[C@H](NC(=O)OC(C)(C)C)C(=O)N[C@@H](CC(=O)O)C(=O)N[C@@H](Cc1ccccc1)C(N)=O [Boc-Met-Asp-Phe-NH2] (Boc-Met-Asp-Phe-NH2) | – | – | CCK antagonist activity [1]: can function as CCK antagonists
2 | CSCC[C@H](NC(=O)[C@H](Cc1ccc(OS(=O)(=O)O)cc1)NC(=O)OCc1ccccc1)C(=O)NCC(=O)N[C@@H](Cc1c[nH]c2ccccc12)C(=O)N[C@@H](CCSC)C(=O)N[C@@H](CC(=O)O)C(N)=O [Cbz-Tyr(SO3 H)-Met-Gly-Trp-Met-Asp-NH2] (Cbz-[sY]MGWMD-NH2) | – | – | CCK antagonist activity [1]: can function as CCK antagonists; also recorded: partial agonist
3 | Fc1ccccc1C1=N[C@H](Cc2c[nH]c3ccccc23)C(Nc2ccccc2)=Nc2ccccc21 [Example 1, 2-Phenylamino-3(R)-(3'-indolyl)methyl-5-(2'-fluorophenyl)-2H-1,4-benzodiazepine] | 100 µM | 34 µM | –
4 | NC1=Nc2ccccc2C(c2ccccc2F)=N[C@@H]1Cc1c[nH]c2ccccc12 [Example 3, 2-Amino-3(R)-(3'-indolyl)methyl-5-(2'-fluorophenyl)-2H-1,4-benzodiazepine] | – | – | IC50 [3]: 1.7 µM
5 | CNC1=Nc2ccccc2C(c2ccccc2F)=N[C@@H]1Cc1c[nH]c2ccccc12 [Example 4, 2-Methylamino-3(R)-(3'-indolyl)methyl-5-(2'-fluorophenyl)-2H-1,4-benzodiazepine] | > 100 µM | 4.5 µM | IC50 [4]: 67 µM
6 | CCOC(=O)CNC1=Nc2ccccc2C(c2ccccc2F)=N[C@@H]1Cc1c[nH]c2ccccc12 [Example 5, 2-Ethoxycarbonylmethylamino-3(R)-(3'-indolyl)methyl-5-(2'-fluorophenyl)-2H-1,4-benzodiazepine] | 49 µM | 23 µM | –
7 | N#CNC1=Nc2ccccc2C(c2ccccc2F)=N[C@@H]1Cc1c[nH]c2ccccc12 [Example 6, 2-Cyanoamino-3(R)-(3'-indolyl)methyl-5-(2'-fluorophenyl)-2H-1,4-benzodiazepine] | 100 µM | 2 µM | –
8 | CCCNC1=Nc2ccccc2C(c2ccccc2F)=N[C@@H]1Cc1c[nH]c2ccccc12 [Example 7, 2-Propylamino-3(R)-(3'-indolyl)methyl-5-(2-fluorophenyl)-2H-1,4-benzodiazepine] | > 100 µM | – | IC50 [3]: 2.7 µM
9 | O=C(O)CNC1=Nc2ccccc2C(c2ccccc2F)=N[C@@H]1Cc1c[nH]c2ccccc12 [Example 8, 2-Carboxymethylamino-3(R)-(3'-indolyl)methyl-5-(2'-fluorophenyl)-2H-1,4-benzodiazepine] | 31 µM | 3.6 µM | IC50 [4]: 2.7 µM
10 | O=C(O)CNC1=Nc2ccccc2C(c2ccccc2)=NC1NC(=O)Nc1ccc(Cl)cc1 (centres unmarked) [Example 9, N-[3-(((4-Chlorophenyl)aminocarbonyl)amino)-5-phenyl-3H-1,4-benzodiazepin-2-yl]-glycine] | 0.11 µM | 0.069 µM | IC50 [4]: 0.032 µM
11 | CCOC(=O)CNC1=Nc2ccccc2C(c2ccccc2)=NC1NC(=O)Nc1ccc(Cl)cc1 (centres unmarked) [Example 10, N-[3-(((4-Chlorophenyl)aminocarbonyl)amino)-5-phenyl-3H-1,4-benzodiazepin-2-yl]-glycine ethyl ester] | – | 1.4 µM | –
12 | CSCC[C@H](N)C(=O)N[C@@H](CC(=O)O)C(=O)N[C@@H](Cc1ccccc1)C(N)=O [Met-Asp-Phe-NH2] (H-Met-Asp-Phe-NH2) | – | – | CCK antagonist activity [1]: can function as CCK antagonists
13 | CCCC(=O)Nc1nc2c(ncn2[C@@H]2O[C@@H]3COP(=O)(O)O[C@H]3[C@H]2OC(=O)CCC)c(=O)[nH]1 [dibutyryl cyclic GMP] | – | – | CCK antagonist activity [1]: the most potent
14 | c1cnc2c(c1)ccc1cccnc12 [o-phenanthroline, reference compound] | – | – | effect on the 125I-CCK receptor binding assay [3]: no effect
15 | O=S(=O)(F)Cc1ccccc1 [phenylmethane sulfonyl fluoride, reference compound] | – | – | effect on the 125I-CCK receptor binding assay [3]: no effect
16 | CCCN(CCC)C(=O)C(CCC(=O)O)NC(=O)c1ccccc1 (centres unmarked) [proglumide] | – | – | gastrin antagonist activity [5]: very weak in vitro antagonists
